From ChEMBL document CHEMBL1909046, “DrugMatrix in vitro pharmacology data”

Columns and labels:
[1] = target: T1, Receptor-type tyrosine-protein phosphatase C (Homo sapiens, UniProt P08575); parameters: species or system Escherichia coli;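 further: inhibition of CD45 enzyme activity measured using DiFMUP as substrate; in other assays of this panel Not Active means under 50% inhibition at 10 µM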
T1 sequence (P08575 whole entry): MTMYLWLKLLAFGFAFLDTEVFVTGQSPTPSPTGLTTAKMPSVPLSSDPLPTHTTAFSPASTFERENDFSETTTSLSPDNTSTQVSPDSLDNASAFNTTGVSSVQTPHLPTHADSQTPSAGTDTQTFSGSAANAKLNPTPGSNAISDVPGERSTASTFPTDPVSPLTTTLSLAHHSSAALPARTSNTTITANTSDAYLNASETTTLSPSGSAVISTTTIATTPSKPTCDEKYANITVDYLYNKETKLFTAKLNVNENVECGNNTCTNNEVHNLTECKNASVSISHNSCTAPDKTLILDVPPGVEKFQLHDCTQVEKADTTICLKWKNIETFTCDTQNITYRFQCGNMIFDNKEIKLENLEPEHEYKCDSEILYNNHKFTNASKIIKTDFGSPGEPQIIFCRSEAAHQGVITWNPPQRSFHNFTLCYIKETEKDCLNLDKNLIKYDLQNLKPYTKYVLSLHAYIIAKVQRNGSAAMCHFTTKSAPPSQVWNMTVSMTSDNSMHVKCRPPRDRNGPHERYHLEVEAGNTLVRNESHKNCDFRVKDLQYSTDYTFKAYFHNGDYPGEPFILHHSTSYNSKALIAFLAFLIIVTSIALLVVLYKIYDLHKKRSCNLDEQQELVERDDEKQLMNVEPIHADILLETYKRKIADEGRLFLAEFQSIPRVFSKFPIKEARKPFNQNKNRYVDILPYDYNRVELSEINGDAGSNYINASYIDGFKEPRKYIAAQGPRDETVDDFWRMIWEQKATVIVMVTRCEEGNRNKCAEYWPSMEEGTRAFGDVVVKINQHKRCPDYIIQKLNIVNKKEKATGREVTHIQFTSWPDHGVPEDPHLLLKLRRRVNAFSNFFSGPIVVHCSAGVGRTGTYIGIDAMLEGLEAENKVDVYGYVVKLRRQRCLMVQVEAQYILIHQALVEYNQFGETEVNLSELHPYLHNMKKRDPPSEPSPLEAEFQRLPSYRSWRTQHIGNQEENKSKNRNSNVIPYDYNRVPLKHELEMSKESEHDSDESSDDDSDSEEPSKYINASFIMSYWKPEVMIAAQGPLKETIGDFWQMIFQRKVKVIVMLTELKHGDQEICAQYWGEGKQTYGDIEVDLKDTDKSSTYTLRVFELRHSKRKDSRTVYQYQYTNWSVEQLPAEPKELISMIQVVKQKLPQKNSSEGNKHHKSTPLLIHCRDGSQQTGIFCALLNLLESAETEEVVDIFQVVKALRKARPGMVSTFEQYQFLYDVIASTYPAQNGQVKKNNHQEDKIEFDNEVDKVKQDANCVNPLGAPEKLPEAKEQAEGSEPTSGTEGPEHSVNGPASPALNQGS

[2] = DRUGMATRIX: ATPase, Na+/K+ enzyme inhibition (substrate: ATP); format: tissue-based, Sus scrofa, Heart; conditions: Not Active = under 50% inhibition at 10 µM
[3] = target: Protein phosphatase 3 catalytic subunit alpha (Homo sapiens, UniProt Q08209); parameters: species or system Escherichia coli;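 further: inhibition of calcineurin (PP2B) enzyme activity, measured with DiFMUP as the substrate; in other assays of this panel Not Active means under 50% inhibition at 10 µM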
[4] = target: Delta-type opioid receptor (Homo sapiens, UniProt P41143); format: cell membranes, HEK293, Membrane; conditions: hek293; further: in other assays of this panel Not Active means under 50% inhibition at 10 µM
[5] = target: T2, Alpha-1A adrenergic receptor (Rattus norvegicus, UniProt P43140); assay: DRUGMATRIX: Alpha-1A adrenergic receptor radioligand binding (ligand: prazosin); format: cell membranes, Wistar, Submaxillary gland, Membrane; conditions: Not Active = under 50% inhibition at 10 µM
T2 sequence (P43140 whole entry): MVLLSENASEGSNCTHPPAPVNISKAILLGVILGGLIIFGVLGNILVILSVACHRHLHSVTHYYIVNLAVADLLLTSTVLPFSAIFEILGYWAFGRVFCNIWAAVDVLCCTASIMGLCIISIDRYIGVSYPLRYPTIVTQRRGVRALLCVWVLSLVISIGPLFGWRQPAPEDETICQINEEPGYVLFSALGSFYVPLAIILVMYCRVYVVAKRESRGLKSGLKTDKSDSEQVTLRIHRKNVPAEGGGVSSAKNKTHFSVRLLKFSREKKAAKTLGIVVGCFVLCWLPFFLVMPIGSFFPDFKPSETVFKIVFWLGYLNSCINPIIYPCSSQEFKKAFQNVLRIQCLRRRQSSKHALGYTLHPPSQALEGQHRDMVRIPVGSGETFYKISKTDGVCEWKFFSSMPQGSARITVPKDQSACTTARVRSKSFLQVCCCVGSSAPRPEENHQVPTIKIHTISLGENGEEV

Adenosine receptor A3 = target: T3, Adenosine receptor A3 (Homo sapiens, UniProt P0DMS8); format: cell membranes, CHO-K1, Membrane; conditions: cho-k1;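 further: radioligand binding assay with AB-MECA serving as the labeled ligand; in other assays of this panel Not Active means under 50% inhibition at 10 µM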
T3 sequence (P0DMS8 whole entry): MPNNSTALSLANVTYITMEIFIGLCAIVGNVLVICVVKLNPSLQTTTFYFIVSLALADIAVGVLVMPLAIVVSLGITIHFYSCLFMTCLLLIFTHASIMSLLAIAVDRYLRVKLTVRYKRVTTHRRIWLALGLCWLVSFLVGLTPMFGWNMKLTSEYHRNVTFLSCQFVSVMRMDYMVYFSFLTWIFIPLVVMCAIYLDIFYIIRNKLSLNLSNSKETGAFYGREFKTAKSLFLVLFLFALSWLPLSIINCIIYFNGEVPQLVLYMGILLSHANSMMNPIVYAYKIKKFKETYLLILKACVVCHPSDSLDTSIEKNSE

Delta-type opioid receptor, sequence (P41143 whole entry): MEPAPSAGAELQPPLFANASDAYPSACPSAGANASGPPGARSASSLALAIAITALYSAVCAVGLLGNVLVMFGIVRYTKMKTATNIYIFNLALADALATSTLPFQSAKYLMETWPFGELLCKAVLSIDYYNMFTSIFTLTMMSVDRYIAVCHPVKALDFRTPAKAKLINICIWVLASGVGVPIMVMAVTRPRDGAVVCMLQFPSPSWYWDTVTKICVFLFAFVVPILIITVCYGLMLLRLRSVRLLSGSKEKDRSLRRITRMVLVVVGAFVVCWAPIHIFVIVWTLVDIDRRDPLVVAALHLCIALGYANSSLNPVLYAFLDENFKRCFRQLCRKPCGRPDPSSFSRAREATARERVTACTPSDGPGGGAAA

C[C@]12CC[C@@H]3c4ccc(O)cc4CC[C@H]3[C@@H]1C[C@@H](O)[C@@H]2O [ESTRIOL]
Not Active: IC50 [1] | IC50 [2] | Ki [2] | IC50 [3] | IC50 [4] | IC50 [5] | IC50 (Adenosine receptor A3)

C#C[C@]1(O)CC[C@H]2[C@@H]3CCC4=CC(=O)CC[C@]4(C)[C@H]3CC[C@@]21C [ETHISTERONE]
Not Active: IC50 [1] | IC50 [2] | Ki [2] | IC50 [3] | IC50 [4] | IC50 [5] | IC50 (Adenosine receptor A3)

CC(O)(P(=O)(O)O)P(=O)(O)O [ETIDRONIC ACID]
Not Active: IC50 [1] | IC50 [2] | Ki [2] | IC50 [3] | IC50 [4] | IC50 [5] | IC50 (Adenosine receptor A3)

CC(C)(C(=O)O)c1ccc(C(O)CCCN2CCC(C(O)(c3ccccc3)c3ccccc3)CC2)cc1 (stereo unspecified) [FEXOFENADINE]
Not Active: IC50 [1] | IC50 [2] | Ki [2] | IC50 [3] | IC50 [4] | IC50 [5] | IC50 (Adenosine receptor A3)

CN1CCN(c2c(F)cc3c(=O)c(C(=O)O)cn(CCF)c3c2F)CC1 [FLEROXACIN]
Not Active: IC50 [1] | IC50 [2] | Ki [2] | IC50 [3] | IC50 [4] | IC50 [5] | IC50 (Adenosine receptor A3)

O=c1[nH]c(=O)n([C@H]2C[C@H](O)[C@@H](CO)O2)cc1F [FLOXURIDINE]
Not Active: IC50 [1] | IC50 [2] | Ki [2] | IC50 [3] | IC50 [4] | IC50 [5] | IC50 (Adenosine receptor A3)

COC(=O)Nc1nc2cc(C(=O)c3ccc(F)cc3)ccc2[nH]1 [FLUBENDAZOLE]
Not Active: IC50 [1] | IC50 [2] | Ki [2] | IC50 [3] | IC50 [4] | IC50 [5] | IC50 (Adenosine receptor A3)

CC(=O)OCC(=O)[C@@]1(O)CC[C@H]2[C@@H]3CCC4=CC(=O)CC[C@]4(C)[C@@]3(F)[C@@H](O)C[C@@]21C [FLUDROCORTISONE ACETATE]
Not Active: IC50 [1] | IC50 [2] | Ki [2] | IC50 [3] | IC50 [4] | IC50 [5] | IC50 (Adenosine receptor A3)

CCOC(=O)c1ncn2c1CN(C)C(=O)c1cc(F)ccc1-2 [FLUMAZENIL]
Not Active: IC50 [1] | IC50 [2] | Ki [2] | IC50 [3] | IC50 [4] | IC50 [5] | IC50 (Adenosine receptor A3)

CC(=O)OCC(=O)[C@@]12OC(C)(C)O[C@@H]1C[C@H]1[C@@H]3C[C@H](F)C4=CC(=O)C=C[C@]4(C)[C@@]3(F)[C@@H](O)C[C@@]12C [FLUOCINONIDE]
Not Active: IC50 [1] | IC50 [2] | Ki [2] | IC50 [3] | IC50 [4] | IC50 [5] | IC50 (Adenosine receptor A3)

O=C(O)P(=O)(O)O [FOSCARNET]
Not Active: IC50 [1] | IC50 [2] | Ki [2] | IC50 [3] | IC50 [4] | IC50 [5] | IC50 (Adenosine receptor A3)

Cc1ccc(C)c(OCCCC(C)(C)C(=O)O)c1 [GEMFIBROZIL]
Not Active: IC50 [1] | IC50 [2] | Ki [2] | IC50 [3] | IC50 [4] | IC50 [5] | IC50 (Adenosine receptor A3)

O=c1c(-c2ccc(O)cc2)coc2cc(O)cc(O)c12 [GENISTEIN]
Not Active: IC50 [1] | IC50 [2] | Ki [2] | IC50 [3] | IC50 [4] | IC50 [5] | IC50 (Adenosine receptor A3)

CCC1=C(C)CN(C(=O)NCCc2ccc(S(=O)(=O)NC(=O)N[C@H]3CC[C@H](C)CC3)cc2)C1=O [GLIMEPIRIDE]
Not Active: IC50 [1] | IC50 [2] | Ki [2] | IC50 [3] | IC50 [4] | IC50 [5] | IC50 (Adenosine receptor A3)

Nc1cc(-c2ccncc2)c[nH]c1=O [INAMRINONE]
Not Active: IC50 [1] | IC50 [2] | Ki [2] | IC50 [3] | IC50 [4] | IC50 [5] | IC50 (Adenosine receptor A3)

CCCCC1=NC2(CCCC2)C(=O)N1Cc1ccc(-c2ccccc2-c2nnn[nH]2)cc1 [IRBESARTAN]
Not Active: IC50 [1] | IC50 [2] | Ki [2] | IC50 [3] | IC50 [4] | IC50 [5] | IC50 (Adenosine receptor A3)

CN1CCC(=C2c3ccccc3CC(=O)c3sccc32)CC1 [KETOTIFEN]
Not Active: IC50 [1] | IC50 [2] | Ki [2] | IC50 [3] | IC50 [4] | IC50 [5] | IC50 (Adenosine receptor A3)

N[C@@H](Cn1ccc(=O)c(O)c1)C(=O)O [L-MIMOSINE]
Not Active: IC50 [1] | IC50 [2] | Ki [2] | IC50 [3] | IC50 [4] | IC50 [5] | IC50 (Adenosine receptor A3)
